Experimental data as given in a compilation of properties of binary mixtures (doi:10.1021/je060497d).

Test: xn = mol fraction of the nth substance listed
Settings: 101 kPa

CCCCCC[n+]1ccn(C)c1.F[P-](F)(F)(F)(F)F + CC(C)O
speed of sound [m/s]
Settings | x1 = 0.0011 | x1 = 0.0019 | x1 = 0.0024 | x2 = 0 | x2 = 0.0067 | x2 = 0.074 | x2 = 0.189 | x2 = 0.3042 | x2 = 0.3877 | x2 = 0.5107
293.15 K | 1157 | – | – | – | 1437 | 1427 | 1408 | 1388 | – | –
298.15 K | 1140 | 1141 | 1141 | 1424 | 1423 | 1413 | 1396 | 1375 | – | 1325
303.15 K | 1122 | 1124 | 1124 | 1411 | 1410 | – | 1383 | 1363 | 1346 | 1313

CCCC[n+]1ccn(C)c1.F[P-](F)(F)(F)(F)F + CC(C)O
speed of sound [m/s]
Settings | x1 = 0.0008 | x1 = 0.0011 | x2 = 0 | x2 = 0.0458 | x2 = 0.1055 | x2 = 0.1825 | x2 = 0.2864
293.15 K | 1156 | – | 1455 | – | 1441 | 1429 | 1409
298.15 K | 1139 | 1140 | 1443 | 1437 | 1429 | 1417 | 1397
303.15 K | – | 1122 | 1431 | 1425 | 1417 | 1405 | 1385

COS(=O)(=O)[O-].Cn1cc[n+](C)c1 + CC(C)O
speed of sound [m/s]
Settings | 293.15 K | 298.15 K | 303.15 K
x2 = 0 | 1826 | 1813 | –
x2 = 0.0498 | 1807 | 1797 | 1785
x2 = 0.0958 | 1791 | 1777 | –
x2 = 0.2008 | – | 1729 | 1720
x2 = 0.3063 | 1684 | 1670 | 1662
x2 = 0.4013 | 1611 | 1605 | 1602
x2 = 0.4957 | 1525 | 1534 | 1534
x2 = 0.5945 | – | 1444 | 1459
x2 = 0.7039 | 1338 | 1352 | 1370
x2 = 0.8013 | 1269 | 1271 | 1292
x2 = 0.9019 | – | 1198 | 1207
x2 = 0.951 | – | 1167 | 1166

CCCC[n+]1ccn(C)c1.F[P-](F)(F)(F)(F)F + CCC(C)=O
speed of sound [m/s]
Settings | 293.15 K | 298.15 K | 303.15 K
x2 = 0 | 1455 | 1443 | 1431
x2 = 0.0509 | 1449 | 1438 | –
x2 = 0.0987 | 1444 | 1433 | 1419
x2 = 0.1907 | 1433 | 1421 | –
x2 = 0.2915 | 1418 | 1408 | 1393
x2 = 0.4057 | 1399 | 1390 | 1374
x2 = 0.5074 | 1380 | 1369 | 1349
x2 = 0.5956 | – | – | 1322
x2 = 0.7008 | – | – | 1292
x2 = 0.7919 | 1301 | 1286 | 1260
x2 = 0.8942 | 1265 | 1248 | 1220
x2 = 0.9467 | – | 1224 | 1195
